Source: PubChem BioAssay (NCI)
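Test compounds were applied to cells in 96-well plates for 48 hours at 5 doses. Here, GI50 denotes the concentration required for 50% inhibition of growth. At the TGI there is no net growth.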

Key:
Experiment in all cases: growth of human tumour cells (NCI), 48 h
[1] = system: 786-0 renal
[2] = system: A498 renal
[3] = system: A549 NSCLC
[4] = system: ACHN renal
[5] = system: BT-549 breast
[6] = system: CAKI-1 renal
[7] = system: CCRF-CEM leukemia
[8] = system: COLO 205 colon
[9] = system: DU-145 prostate
[10] = system: EKVX NSCLC
[11] = system: HCC-2998 colon
[12] = system: HCT-116 colon
[13] = system: HCT-15 colon
[14] = system: HL-60(TB) leukemia
[15] = system: HOP-62 NSCLC
[16] = system: HOP-92 NSCLC
[17] = system: HS 578T breast
[18] = system: HT29 colon
[19] = system: IGROV1 ovarian
[20] = system: K-562 leukemia
[21] = system: KM12 colon
[22] = system: LOX IMVI melanoma
[23] = system: M14 melanoma
[24] = system: MALME-3M melanoma
[25] = system: MCF7 breast
[26] = system: MDA-MB-231 breast
[27] = system: MDA-MB-435
[28] = system: MOLT-4 leukemia
[29] = system: NCI-H226 lung
[30] = system: NCI-H23 lung
[31] = system: NCI-H460 lung
[32] = system: NCI-H522 lung
[33] = system: NCI/ADR-RES ovarian
[34] = system: OVCAR-3 ovarian
[35] = system: OVCAR-4 ovarian
[36] = system: OVCAR-5 ovarian
[37] = system: OVCAR-8 ovarian
[38] = system: PC-3 prostate
[39] = system: RPMI-8226 leukemia
[40] = system: RXF 393 renal
[41] = system: SF-268 CNS
[42] = system: SF-295 CNS
[43] = system: SF-539 CNS
[44] = system: SK-MEL-28 melanoma
[45] = system: SK-MEL-5 melanoma
[46] = system: SK-OV-3 ovarian
[47] = system: SN12C renal
[48] = system: SNB-19 CNS
[49] = system: SNB-75 CNS
[50] = system: SR leukemia
[51] = system: SW-620 colon
[52] = system: T-47D breast
[53] = system: TK-10 renal
[54] = system: U251 CNS
[55] = system: UACC-257 melanoma
[56] = system: UACC-62 melanoma
[57] = system: UO-31 renal
[58] = system: SK-MEL-2 melanoma

O=C1c2ccccc2C(=O)c2c(Nc3ccc(CCO)cc3)ccc(O)c21
GI50 [1]: 17.2 µM
TGI [1]: 60.1 µM
GI50 [2]: 16.4 µM
TGI [2]: 40.2 µM
GI50 [3]: 6.43 µM
TGI [3]: > 100 µM
GI50 [4]: 4.3 µM
TGI [4]: 45.2 µM
GI50 [5]: 9.82 µM
TGI [5]: 68.5 µM
GI50 [6]: 6.81 µM
TGI [6]: > 100 µM
GI50 [7]: 3.61 µM
TGI [7]: 30.7 µM
GI50 [8]: 4.86 µM
TGI [8]: 21.7 µM
GI50 [9]: 7.67 µM
TGI [9]: 42.7 µM
GI50 [10]: 4.69 µM
TGI [10]: > 100 µM
GI50 [11]: 9.42 µM
TGI [11]: 28.3 µM
GI50 [12]: 8.71 µM
TGI [12]: > 100 µM
GI50 [13]: 4.28 µM
TGI [13]: 38.7 µM
GI50 [14]: 25.6 µM
TGI [14]: > 100 µM
GI50 [15]: 21.4 µM
TGI [15]: 45.9 µM
GI50 [16]: 4.52 µM
TGI [16]: 26.3 µM
GI50 [17]: 3.52 µM
TGI [17]: 48 µM
GI50 [18]: 4.09 µM
TGI [18]: 14.9 µM
GI50 [19]: 1.41 µM
TGI [19]: 32.6 µM
GI50 [20]: 18.4 µM
TGI [20]: > 100 µM
GI50 [21]: 4.74 µM
TGI [21]: 36.3 µM
GI50 [22]: 3.15 µM
TGI [22]: 14.5 µM
GI50 [23]: 12.9 µM
TGI [23]: 61.4 µM
GI50 [24]: 12.8 µM
TGI [24]: 58 µM
GI50 [25]: 0.504 µM
TGI [25]: 36.4 µM
GI50 [26]: 3.3 µM
TGI [26]: 24.9 µM
GI50 [27]: 22.6 µM
TGI [27]: > 100 µM
GI50 [28]: 10.7 µM
TGI [28]: > 100 µM
GI50 [29]: 14.8 µM
TGI [29]: 48.9 µM
GI50 [30]: 17.3 µM
TGI [30]: 88.7 µM
GI50 [31]: 3.57 µM
TGI [31]: 15.1 µM
GI50 [32]: 3.56 µM
TGI [32]: 16.7 µM
GI50 [33]: 17.6 µM
TGI [33]: 94.4 µM
GI50 [34]: 13.2 µM
TGI [34]: > 100 µM
GI50 [35]: 9.13 µM
TGI [35]: > 100 µM
GI50 [36]: 21.1 µM
TGI [36]: 62.6 µM
GI50 [37]: 17.4 µM
TGI [37]: > 100 µM
GI50 [38]: 6.34 µM
TGI [38]: 25.5 µM
GI50 [39]: 5.49 µM
TGI [39]: 36.5 µM
GI50 [40]: 6.54 µM
TGI [40]: 23.7 µM
GI50 [41]: 11 µM
TGI [41]: > 100 µM
GI50 [42]: 11.8 µM
TGI [42]: 47.4 µM
GI50 [43]: 10.2 µM
TGI [43]: 27.3 µM
GI50 [44]: 12.3 µM
TGI [44]: 55.2 µM
GI50 [45]: 11.7 µM
TGI [45]: 33.5 µM
GI50 [46]: 11 µM
TGI [46]: 64.8 µM
GI50 [47]: 16.9 µM
TGI [47]: > 100 µM
GI50 [48]: 23 µM
TGI [48]: 72.2 µM
GI50 [49]: 5.09 µM
TGI [49]: 29 µM
GI50 [50]: 7.71 µM
TGI [50]: > 100 µM
GI50 [51]: 6.69 µM
TGI [51]: 67.5 µM
GI50 [52]: 0.987 µM
TGI [52]: 26.1 µM
GI50 [53]: 21.8 µM
TGI [53]: > 100 µM
GI50 [54]: 8.33 µM
TGI [54]: 85.8 µM
GI50 [55]: 20.3 µM
TGI [55]: 70.7 µM
GI50 [56]: 10.2 µM
TGI [56]: 32.3 µM
GI50 [57]: 2.2 µM
TGI [57]: 26.9 µM

CCN(CC)c1ccc(C2=NN(C(C)=O)C(c3cc(OC)c(OC)c(OC)c3)C2)cc1 (stereo not drawn)
GI50 [1]: 0.491 µM
TGI [1]: 13.3 µM
GI50 [2]: 0.344 µM
TGI [2]: 4.13 µM
GI50 [3]: 0.89 µM
TGI [3]: 22.5 µM
GI50 [4]: 0.563 µM
TGI [4]: 23 µM
GI50 [5]: 0.667 µM
TGI [5]: 7.9 µM
GI50 [6]: 0.134 µM
TGI [6]: 21 µM
GI50 [7]: 0.304 µM
TGI [7]: 1.42 µM
GI50 [8]: 0.307 µM
TGI [8]: 1.16 µM
GI50 [9]: 0.399 µM
TGI [9]: 2.28 µM
GI50 [10]: 0.6 µM
TGI [10]: 11 µM
GI50 [11]: 1.05 µM
TGI [11]: 8.04 µM
GI50 [12]: 0.349 µM
TGI [12]: 13 µM
GI50 [13]: 0.441 µM
TGI [13]: 12.1 µM
GI50 [14]: 0.209 µM
TGI [14]: 0.541 µM
GI50 [15]: 3.96 µM
TGI [15]: 24.2 µM
GI50 [16]: 1.82 µM
TGI [16]: 20.3 µM
GI50 [17]: 0.348 µM
TGI [17]: 26.6 µM
GI50 [18]: 0.354 µM
TGI [18]: 1.68 µM
GI50 [19]: 0.769 µM
TGI [19]: 33.6 µM
GI50 [20]: 0.689 µM
TGI [20]: > 100 µM
GI50 [21]: 0.349 µM
TGI [21]: 12.1 µM
GI50 [22]: 0.568 µM
TGI [22]: 16 µM
GI50 [23]: 0.418 µM
TGI [23]: 6.07 µM
GI50 [25]: 0.317 µM
TGI [25]: 11.4 µM
GI50 [26]: 1.24 µM
TGI [26]: 6.9 µM
GI50 [27]: 0.166 µM
TGI [27]: 0.363 µM
GI50 [28]: 0.341 µM
TGI [28]: 3.57 µM
GI50 [29]: 1.74 µM
TGI [29]: 11.8 µM
GI50 [30]: 0.87 µM
TGI [30]: 17.4 µM
GI50 [31]: 0.371 µM
TGI [31]: 4.71 µM
GI50 [32]: 0.307 µM
TGI [32]: 2.84 µM
GI50 [33]: 0.247 µM
TGI [33]: 0.81 µM
GI50 [34]: 0.36 µM
TGI [34]: 11 µM
GI50 [35]: 0.583 µM
TGI [35]: 29.2 µM
GI50 [36]: 1.45 µM
TGI [36]: 15.3 µM
GI50 [37]: 0.795 µM
TGI [37]: 11.9 µM
GI50 [38]: 0.339 µM
TGI [38]: 12.2 µM
GI50 [39]: 0.18 µM
TGI [39]: 0.579 µM
GI50 [40]: 0.38 µM
TGI [40]: 2.43 µM
GI50 [41]: 0.867 µM
TGI [41]: 20.9 µM
GI50 [42]: 0.258 µM
TGI [42]: 1.46 µM
GI50 [43]: 0.283 µM
TGI [43]: 1.16 µM
GI50 [58]: 2.37 µM
TGI [58]: 26.1 µM
GI50 [44]: 0.819 µM
TGI [44]: 19.1 µM
GI50 [45]: 0.378 µM
TGI [45]: 5.05 µM
GI50 [46]: 0.41 µM
TGI [46]: 10.6 µM
GI50 [47]: 1.15 µM
TGI [47]: 16.2 µM
GI50 [48]: 0.476 µM
TGI [48]: 13.3 µM
GI50 [49]: 0.233 µM
TGI [49]: 3.59 µM
GI50 [50]: 0.0708 µM
TGI [50]: 0.685 µM
GI50 [51]: 0.368 µM
TGI [51]: 14.4 µM
GI50 [52]: 0.511 µM
TGI [52]: 22.6 µM
GI50 [53]: 0.549 µM
TGI [53]: 17 µM
GI50 [54]: 0.406 µM
TGI [54]: 11.5 µM
GI50 [55]: 16 µM
TGI [55]: 39.8 µM
GI50 [56]: 0.308 µM
TGI [56]: 13.6 µM
GI50 [57]: 1.13 µM
TGI [57]: 21 µM
